Values quoted from earlier work, collected in EP3738589B1, “A COMPOSITION FOR THE PREVENTION AND/OR TREATMENT OF OROPHARYNGEAL MUCOSA DISEASES” (Neilos S.r.l., priority 2019, dated 2020).

What was measured:
[1] = tested on: patients suffering from BPCO; conditions: patients suffering from BPCO treated with NAC; from 1.71 times a year
[2] = tested on: oral mucositis caused by chemotherapy; conditions: hematopoietic SCT
oral mucositis = conditions: patients with cancer

| SMILES | reduction in exacerbations [1] [times a year] | days of discomfort are reduced by (BPCO; BPCO) [days/month] | exacerbations of the disease are reduced by (BPCO; BPCO) [exacerbation/month] | reduce hospitalizations due to BPCO by (BPCO; BPCO) [%] | increase in FEV1 (BPCO; from 25%, after a short 4-week-therapy) [%] | incidence and grade of oral mucositis [2] | severity of oral mucositis (oral mucositis) |
| --- | --- | --- | --- | --- | --- | --- | --- |
| CC(=O)N[C@@H](CS)C(=O)O [NAC, N-acetyl-L-cysteine] | 0.96 | 0.56 | 0.07 | 30 | 30 | reduces the incidence and grade of oral mucositis |  |
| O=C1O[C@H]([C@@H](O)CO)C(O)=C1O [vitamin C, ascorbic acid] |  |  |  |  |  |  | alleviates the severity of oral mucositis |
